Columns and labels:
Puccinia recondita = experiment: Curative activity against brown rust of wheat (potted wheat seedlings cv. Kanzler); format: in vivo; details: single active, 7 days
Experimental: (§1) The active compounds are prepared separately or together as a 10% strength emulsion in a mixture of 63% by weight of cyclohexanone and 27% by weight of emulsifier and diluted with water to the desired concentration.
(§2) Evaluation is carried out by determining the infected leaf areas in percent. These percentages are converted into efficacies. The efficacy (E) is calculated as follows using Abbot's formula: E=(1−α)*100/β • α corresponds to the fungal infection of the treated plants in % and • β corresponds to the fungal infection of the untreated (control) plants in %
(§3) An efficacy of 0 means that the infection level of the treated plants corresponds to that of the untreated control plants; an efficacy of 100 means that the treated plants were not infected.
(§4) The expected efficacies of the active compound mixtures were determined using Colby's formula [S. R. Colby, Weeds 15, 20-22 (1967)] and compared with the observed efficacies. Colby's formula: E=x+y−x−y/100 • E expected efficacy, expressed in % of the untreated control, when using the mixture of the active compounds A and B at the concentrations a and b • x efficacy, expressed in % of the untreated control, when using active compound A at a concentration of a • y efficacy, expressed in % of.the untreated control, when using active compound B at a concentration of b
Leaves of potted wheat seedlings of the cultivar “Kanzler” were dusted with spores of brown rust (Puccinia recondita). The pots were then placed in a chamber with high atmospheric humidity (90 to 95%), at 20 to 22° C., for 24 hours. During this period of time, the spores germinated and the germinal tubes penetrated into the leaf tissue. The next day, the infected plants were sprayed to runoff point with an aqueous suspension having the concentration of active compound stated below. The suspension or emulsion had been prepared from a stock solution comprising 10% of active compound in a mixture consisting of 85% of cyclohexanone and 5% of emulsifier. After the spray coating had dried on, the test plants were cultivated in a greenhouse at temperatures between 20 and 22° C. and at 65 to 70% relative atmospheric humidity for 7 days. The extent of the rust fungus development on the leaves was then determined.
The visually determined percentages of infected leaf areas were converted into efficacies as % of the untreated control. An efficacy of 0 means that the infection level of the treated plants corresponds to that of the untreated control; an efficacy of 100 means 0% infection. The expected efficacies of the combinations of active compounds were determined using Colby's formula (Colby, S. R. “Calculating synergistic and antagonistic responses of herbicide Combinations”, Weeds, 15, pp. 20-22, 1967) and compared with the observed efficacies.

[1] = test system: Erysiphe [syn. Blumeria] graminis forma specialis tritici; experiment: Activity against mildew of wheat (protective spray, potted wheat seedlings cv. Kanzler); format: in vivo; details: single active, 7 days after inoculation
Experimental: as §1, §2, §3, §4
Leaves of potted wheat seedlings of the cultivar “Kanzler” were sprayed to runoff point with an aqueous suspension having the concentration of active compound stated below. The suspension or emulsion had been prepared from a stock solution comprising 10% of active compound in a mixture consisting of 85% of cyclohexanone and 5% of emulsifier. 24 hours after the spray coating had dried on, the seedlings were dusted with spores of mildew of wheat (Erysiphe [syn. Blumeria] graminis forma specialis tritici). The test plants were then placed in a greenhouse at temperatures between 20 and 24° C. and 60 to 90% relative atmospheric humidity. After 7 days, the extent of the mildew development was determined visually in % infection of the total leaf area.
The visually determined percentages of infected leaf area were converted into efficacies as % of the untreated control. An efficacy of 0 means the infection level of the treated plants corresponds to that of the untreated control; an efficacy of 100 means 0% infection. The expected efficacies of the combinations of active compounds were determined using Colby's formula (Colby, S. R. “Calculating synergistic and antagonistic responses of herbicide Combinations”, Weeds, 15, pp., 20-22, 1967) and compared with the observed efficacies.

| Structure (SMILES) | Efficacy in % of the untreated control (Puccinia recondita; 0.015 ppm in spray liquor) | Efficacy in % of the untreated control (Puccinia recondita; 0.06 ppm in spray liquor) | Efficacy in % of the untreated control (Puccinia recondita; 0.25 ppm in spray liquor) | Efficacy in % of the untreated control (Puccinia recondita; 1 ppm in spray liquor) | Efficacy in % of the untreated control ([1]; 0.015 ppm in spray liquor) | Efficacy in % of the untreated control ([1]; 0.06 ppm in spray liquor) | Efficacy in % of the untreated control ([1]; 0.25 ppm in spray liquor) | Efficacy in % of the untreated control ([1]; 1 ppm in spray liquor) |
| --- | --- | --- | --- | --- | --- | --- | --- | --- |
| COc1cc(C)c(C(=O)c2c(OC)ccc(Br)c2C)c(OC)c1OC [Compound II = metrafenone, metrafenone] | 0% | 0% | 0% | 0% | 33% | 44% | 56% | 72% |
| Fc1ccc(C2(Cn3cncn3)OC2c2ccccc2Cl)cc1 (stereo not drawn) [Compound III = epoxiconazole, epoxiconazole] | 0% | 67% | 89% | 94% | 0% | 33% | 44% | 56% |
| COC(=O)N(OC)c1ccccc1COc1ccn(-c2ccc(Cl)cc2)n1 [Compound IV = pyraclostrobin, pyraclostrobin] | 22% | 33% | 33% | 78% | 0% | 0% | 0% | 33% |

— patent publication US20050203188A1, “Fungicidal mixtures based on benzamideoxime derivatives, benzophenones and on an azole” (priority 2002, published 2005)
